Reference: BindingDB's records for doi:10.1016/0960-894X(96)00231-4 (1996)

Tests used:
[1] = Stimulation of mitogenesis in Dopamine receptor D3 transfected CHO p-5 cells
[2] = molecular target: D(2) dopamine receptor (Rattus norvegicus) (UniProt P61169); experiment: Binding affinity at Dopamine D2 receptors in rat striatum by [3H]spiperone displacement.
[3] = Binding affinity at Dopamine D3 receptors in rat striatum by [3H]-spiperone displacement.

Chain of D(2) dopamine receptor (Rattus norvegicus) (P61169 whole entry, looked up): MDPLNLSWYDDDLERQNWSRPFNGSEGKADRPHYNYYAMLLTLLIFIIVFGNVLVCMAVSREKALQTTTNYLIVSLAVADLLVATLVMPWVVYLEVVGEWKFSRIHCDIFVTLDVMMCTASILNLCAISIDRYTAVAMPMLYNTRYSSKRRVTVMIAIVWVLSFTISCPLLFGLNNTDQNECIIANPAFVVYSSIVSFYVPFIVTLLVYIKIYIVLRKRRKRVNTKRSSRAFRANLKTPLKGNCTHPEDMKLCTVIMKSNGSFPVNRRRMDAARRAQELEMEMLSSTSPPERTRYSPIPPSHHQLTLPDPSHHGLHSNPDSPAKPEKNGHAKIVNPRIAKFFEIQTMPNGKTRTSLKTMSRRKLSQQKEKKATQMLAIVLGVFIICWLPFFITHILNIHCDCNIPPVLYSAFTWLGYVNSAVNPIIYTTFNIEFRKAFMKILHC

| EC50 [1] | Ki [2] | Ki [3] | Structure (SMILES) |
| --- | --- | --- | --- |
| > 1000 nM | 484 nM | 66 nM | COc1c(C(=O)NCCN2CCN(c3ccccc3C)CC2)cc(Br)c2ccccc12 [4-Bromo-1-methoxy-naphthalene-2-carboxylic acid [2-(4-o-tolyl-piperazin-1-yl)-ethyl]-amide] |
| – | 1290 nM | 652 nM | COc1cccc(N2CCN(CCNC(=O)c3cc(Br)c4ccccc4c3OC)CC2)c1 [4-Bromo-1-methoxy-naphthalene-2-carboxylic acid {2-[4-(3-methoxy-phenyl)-piperazin-1-yl]-ethyl}-amide] |
| – | > 10000 nM | 267 nM | CCOc1c(C(=O)NCCN2CCN(c3ccccc3)CC2)cc(Br)c2ccccc12 [4-Bromo-1-ethoxy-naphthalene-2-carboxylic acid [2-(4-phenyl-piperazin-1-yl)-ethyl]-amide] |
| – | 5690 nM | 731 nM | COc1ccc(N2CCN(CCNC(=O)c3cc(Br)c4ccccc4c3OC)CC2)cc1 [4-Bromo-1-methoxy-naphthalene-2-carboxylic acid {2-[4-(4-methoxy-phenyl)-piperazin-1-yl]-ethyl}-amide] |
| – | 1170 nM | – | COc1c(C(=O)NCCN2CCN(c3cccc(C)c3C)CC2)cc(Br)c2ccccc12 [4-Bromo-1-methoxy-naphthalene-2-carboxylic acid {2-[4-(2,3-dimethyl-phenyl)-piperazin-1-yl]-ethyl}-amide] |
| – | 1890 nM | 24 nM | COc1c(C(=O)NCCN2CCN(c3ccccc3)CC2)cc(Br)c2ccccc12 [4-Bromo-1-methoxy-naphthalene-2-carboxylic acid [2-(4-phenyl-piperazin-1-yl)-ethyl]-amide] |
| – | – | 132 nM | COc1c(C(=O)NCCN2CCN(c3ccc(Cl)cc3)CC2)cc(Br)c2ccccc12 [4-Bromo-1-methoxy-naphthalene-2-carboxylic acid {2-[4-(4-chloro-phenyl)-piperazin-1-yl]-ethyl}-amide] |
| – | 1210 nM | 339 nM | COc1c(C(=O)NCCN2CCN(c3cccc(C)c3)CC2)cc(Br)c2ccccc12 [4-Bromo-1-methoxy-naphthalene-2-carboxylic acid [2-(4-m-tolyl-piperazin-1-yl)-ethyl]-amide] |
| – | 5690 nM | 731 nM | COc1c(C(=O)NCCN2CCN(c3ccc([N+](=O)[O-])cc3)CC2)cc(Br)c2ccccc12 [4-Bromo-1-methoxy-naphthalene-2-carboxylic acid {2-[4-(4-nitro-phenyl)-piperazin-1-yl]-ethyl}-amide] |
| – | 71 nM | 131 nM | COc1c(C(=O)NCCN2CCN(c3ccccc3)CC2)cc(C#N)c2ccccc12 [4-Cyano-1-methoxy-naphthalene-2-carboxylic acid [2-(4-phenyl-piperazin-1-yl)-ethyl]-amide] |
| – | 7000 nM | 270 nM | COc1c(C(=O)NCCN2CCN(c3ccccc3)CC2)ccc2ccccc12 [1-Methoxy-naphthalene-2-carboxylic acid [2-(4-phenyl-piperazin-1-yl)-ethyl]-amide] |
| – | 151 nM | 24 nM | COc1c(C(=O)NCCN2CCN(c3ccccc3[N+](=O)[O-])CC2)cc(Br)c2ccccc12 [4-Bromo-1-methoxy-naphthalene-2-carboxylic acid {2-[4-(2-nitro-phenyl)-piperazin-1-yl]-ethyl}-amide] |
| – | 2530 nM | 55 nM | COc1c(C(=O)NCCN2CCN(c3ccccc3)CC2)cc(Cl)c2ccccc12 [4-Chloro-1-methoxy-naphthalene-2-carboxylic acid [2-(4-phenyl-piperazin-1-yl)-ethyl]-amide] |
| 83 nM | 517 nM | 39 nM | COc1c(C(=O)NCCN2CCN(c3ccccc3Cl)CC2)cc(Br)c2ccccc12 [4-Bromo-1-methoxy-naphthalene-2-carboxylic acid {2-[4-(2-chloro-phenyl)-piperazin-1-yl]-ethyl}-amide] |
| – | > 10000 nM | > 10000 nM | O=C(NCCN1CCN(c2ccccc2)CC1)c1cc(Br)c2ccccc2c1O [4-Bromo-1-hydroxy-naphthalene-2-carboxylic acid [2-(4-phenyl-piperazin-1-yl)-ethyl]-amide] |
| – | 303 nM | 76 nM | COc1ccccc1N1CCN(CCNC(=O)c2cc(Br)c3ccccc3c2OC)CC1 [4-Bromo-1-methoxy-naphthalene-2-carboxylic acid {2-[4-(2-methoxy-phenyl)-piperazin-1-yl]-ethyl}-amide] |
| – | > 10000 nM | > 10000 nM | O=C(NCCN1CCN(c2ccccc2)CC1)c1cc(Br)c2ccccc2c1 [4-Bromo-naphthalene-2-carboxylic acid [2-(4-phenyl-piperazin-1-yl)-ethyl]-amide] |
| – | 1290 nM | 652 nM | COc1c(C(=O)NCCN2CCN(c3cccc([N+](=O)[O-])c3)CC2)cc(Br)c2ccccc12 [4-Bromo-1-methoxy-naphthalene-2-carboxylic acid {2-[4-(3-nitro-phenyl)-piperazin-1-yl]-ethyl}-amide] |
| 28 nM | 703 nM | – | COc1c(C(=O)NCCN2CCN(c3cccc(Cl)c3)CC2)cc(Br)c2ccccc12 [4-Bromo-1-methoxy-naphthalene-2-carboxylic acid {2-[4-(3-chloro-phenyl)-piperazin-1-yl]-ethyl}-amide] |
| – | 996 nM | 260 nM | COc1c(C(=O)NCCN2CCN(c3ccc(C)cc3)CC2)cc(Br)c2ccccc12 [4-Bromo-1-methoxy-naphthalene-2-carboxylic acid [2-(4-p-tolyl-piperazin-1-yl)-ethyl]-amide] |
